According to patent US20190330224A1, “ACC INHIBITORS AND USES THEREOF” (Gilead Apollo, LLC, priority 2015, published 2019):
Values after ≈ are worked out from the molar mass of the structure shown.

Columns and labels:
[1] = tested on: C. parapsilosis ATCC 22019; experiment: Anti-Fungal Activity Assay (broth microtiter MIC), C. parapsilosis; type: cell-based, Candida parapsilosis; conditions: Lodderomyces parapsilosis, ATCC22019, 48 h, 3 replicates; MIC recorded at 48 h; read-out: MIC C. parapsilosis ATCC 22019
Procedure, shortened: (§1)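 Candida strains were grown from frozen stock on Sabouraud dextrose agar overnight at 35° C, then suspended directly in RPMI 1640+MOPS and quantified against standard curves. Broth microdilution MIC plates followed CLSI M27-A3; MICs were read visually against growth control at 48 h, with a 24 h read added for soraphen.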

C. krusei ATCC 6258 = experiment: Anti-Fungal Activity Assay (broth microtiter MIC), C. krusei; type: cell-based, Candida krusei; conditions: Pichia kudriavzevii, ATCC6258, 48 h, 3 replicates; MIC recorded at 48 h; read-out: MIC C. krusei ATCC 6258
Procedure, shortened: as §1

Human ACC2 = Human ACC2 (Homo sapiens, UniProt O00763); experiment: In vitro ACC2 inhibition assay (ADP-Glo), human ACC2; type: biochemical; conditions: 5 nM ACC2, 20 μM ATP, 20 μM acetyl-CoA
Chain of Human ACC2 (O00763 whole entry): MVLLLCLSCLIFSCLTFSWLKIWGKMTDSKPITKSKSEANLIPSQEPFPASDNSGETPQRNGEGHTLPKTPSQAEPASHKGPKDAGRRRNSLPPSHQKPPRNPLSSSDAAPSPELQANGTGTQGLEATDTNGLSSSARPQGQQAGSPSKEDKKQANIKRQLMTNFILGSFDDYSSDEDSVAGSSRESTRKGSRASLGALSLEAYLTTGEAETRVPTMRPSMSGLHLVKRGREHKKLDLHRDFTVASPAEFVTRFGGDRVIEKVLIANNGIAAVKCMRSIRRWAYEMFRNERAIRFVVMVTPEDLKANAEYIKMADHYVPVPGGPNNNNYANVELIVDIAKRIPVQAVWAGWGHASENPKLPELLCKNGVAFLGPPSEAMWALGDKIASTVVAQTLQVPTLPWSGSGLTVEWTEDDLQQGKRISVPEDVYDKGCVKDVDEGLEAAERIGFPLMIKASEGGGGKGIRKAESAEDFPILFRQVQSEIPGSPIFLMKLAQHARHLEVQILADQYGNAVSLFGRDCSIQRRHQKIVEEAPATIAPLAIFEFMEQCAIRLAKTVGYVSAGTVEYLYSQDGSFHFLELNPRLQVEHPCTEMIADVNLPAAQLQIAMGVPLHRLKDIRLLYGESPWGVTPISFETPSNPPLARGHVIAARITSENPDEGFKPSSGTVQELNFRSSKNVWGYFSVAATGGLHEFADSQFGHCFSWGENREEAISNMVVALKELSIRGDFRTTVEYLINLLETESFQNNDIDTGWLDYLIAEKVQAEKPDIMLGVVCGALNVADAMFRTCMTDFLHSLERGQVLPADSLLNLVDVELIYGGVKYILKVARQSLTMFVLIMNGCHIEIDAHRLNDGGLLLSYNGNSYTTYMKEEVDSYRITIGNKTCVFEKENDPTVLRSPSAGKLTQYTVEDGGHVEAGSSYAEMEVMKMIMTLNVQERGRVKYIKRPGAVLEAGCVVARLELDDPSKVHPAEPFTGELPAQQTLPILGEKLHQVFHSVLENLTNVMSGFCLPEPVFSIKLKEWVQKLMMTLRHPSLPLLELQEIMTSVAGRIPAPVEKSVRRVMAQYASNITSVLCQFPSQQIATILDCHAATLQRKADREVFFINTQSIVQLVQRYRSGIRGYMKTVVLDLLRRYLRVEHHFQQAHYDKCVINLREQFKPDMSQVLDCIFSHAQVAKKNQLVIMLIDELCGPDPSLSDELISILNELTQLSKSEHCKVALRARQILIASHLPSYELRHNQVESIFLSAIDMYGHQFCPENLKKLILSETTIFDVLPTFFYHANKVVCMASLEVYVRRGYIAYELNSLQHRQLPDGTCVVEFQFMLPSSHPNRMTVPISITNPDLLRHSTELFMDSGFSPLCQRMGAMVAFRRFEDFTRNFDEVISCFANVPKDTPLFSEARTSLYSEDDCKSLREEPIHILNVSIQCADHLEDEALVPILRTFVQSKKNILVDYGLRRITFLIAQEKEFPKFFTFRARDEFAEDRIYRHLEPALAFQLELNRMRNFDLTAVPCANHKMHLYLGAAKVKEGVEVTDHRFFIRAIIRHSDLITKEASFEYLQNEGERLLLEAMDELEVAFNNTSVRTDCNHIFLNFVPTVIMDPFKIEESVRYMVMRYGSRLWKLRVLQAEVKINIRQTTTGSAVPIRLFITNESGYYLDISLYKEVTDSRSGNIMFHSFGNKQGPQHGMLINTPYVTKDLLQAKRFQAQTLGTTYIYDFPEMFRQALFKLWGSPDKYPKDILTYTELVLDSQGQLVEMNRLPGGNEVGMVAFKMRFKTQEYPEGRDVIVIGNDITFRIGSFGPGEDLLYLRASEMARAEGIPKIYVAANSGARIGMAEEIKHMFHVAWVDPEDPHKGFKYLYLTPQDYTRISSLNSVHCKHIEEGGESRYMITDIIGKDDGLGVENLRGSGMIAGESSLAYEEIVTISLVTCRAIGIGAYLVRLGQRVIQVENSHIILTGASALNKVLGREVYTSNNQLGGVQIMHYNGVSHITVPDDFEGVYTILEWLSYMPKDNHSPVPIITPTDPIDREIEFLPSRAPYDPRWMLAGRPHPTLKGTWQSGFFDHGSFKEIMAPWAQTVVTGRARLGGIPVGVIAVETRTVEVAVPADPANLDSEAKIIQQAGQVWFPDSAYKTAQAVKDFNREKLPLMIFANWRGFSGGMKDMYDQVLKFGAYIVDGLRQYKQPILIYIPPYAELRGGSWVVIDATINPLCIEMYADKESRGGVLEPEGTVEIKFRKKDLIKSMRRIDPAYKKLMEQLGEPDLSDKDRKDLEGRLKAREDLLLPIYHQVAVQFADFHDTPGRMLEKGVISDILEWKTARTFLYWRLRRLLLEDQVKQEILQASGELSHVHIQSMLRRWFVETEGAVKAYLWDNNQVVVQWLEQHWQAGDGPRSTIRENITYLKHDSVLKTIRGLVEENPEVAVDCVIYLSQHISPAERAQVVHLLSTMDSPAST

Fungal ACC2 = Fungal ACC2 (UniProt Q00955); conditions: read-out: Fungal ACC2 (IC50, in vitro ACC2 inhibition)
Chain of Fungal ACC2 (Q00955 whole entry): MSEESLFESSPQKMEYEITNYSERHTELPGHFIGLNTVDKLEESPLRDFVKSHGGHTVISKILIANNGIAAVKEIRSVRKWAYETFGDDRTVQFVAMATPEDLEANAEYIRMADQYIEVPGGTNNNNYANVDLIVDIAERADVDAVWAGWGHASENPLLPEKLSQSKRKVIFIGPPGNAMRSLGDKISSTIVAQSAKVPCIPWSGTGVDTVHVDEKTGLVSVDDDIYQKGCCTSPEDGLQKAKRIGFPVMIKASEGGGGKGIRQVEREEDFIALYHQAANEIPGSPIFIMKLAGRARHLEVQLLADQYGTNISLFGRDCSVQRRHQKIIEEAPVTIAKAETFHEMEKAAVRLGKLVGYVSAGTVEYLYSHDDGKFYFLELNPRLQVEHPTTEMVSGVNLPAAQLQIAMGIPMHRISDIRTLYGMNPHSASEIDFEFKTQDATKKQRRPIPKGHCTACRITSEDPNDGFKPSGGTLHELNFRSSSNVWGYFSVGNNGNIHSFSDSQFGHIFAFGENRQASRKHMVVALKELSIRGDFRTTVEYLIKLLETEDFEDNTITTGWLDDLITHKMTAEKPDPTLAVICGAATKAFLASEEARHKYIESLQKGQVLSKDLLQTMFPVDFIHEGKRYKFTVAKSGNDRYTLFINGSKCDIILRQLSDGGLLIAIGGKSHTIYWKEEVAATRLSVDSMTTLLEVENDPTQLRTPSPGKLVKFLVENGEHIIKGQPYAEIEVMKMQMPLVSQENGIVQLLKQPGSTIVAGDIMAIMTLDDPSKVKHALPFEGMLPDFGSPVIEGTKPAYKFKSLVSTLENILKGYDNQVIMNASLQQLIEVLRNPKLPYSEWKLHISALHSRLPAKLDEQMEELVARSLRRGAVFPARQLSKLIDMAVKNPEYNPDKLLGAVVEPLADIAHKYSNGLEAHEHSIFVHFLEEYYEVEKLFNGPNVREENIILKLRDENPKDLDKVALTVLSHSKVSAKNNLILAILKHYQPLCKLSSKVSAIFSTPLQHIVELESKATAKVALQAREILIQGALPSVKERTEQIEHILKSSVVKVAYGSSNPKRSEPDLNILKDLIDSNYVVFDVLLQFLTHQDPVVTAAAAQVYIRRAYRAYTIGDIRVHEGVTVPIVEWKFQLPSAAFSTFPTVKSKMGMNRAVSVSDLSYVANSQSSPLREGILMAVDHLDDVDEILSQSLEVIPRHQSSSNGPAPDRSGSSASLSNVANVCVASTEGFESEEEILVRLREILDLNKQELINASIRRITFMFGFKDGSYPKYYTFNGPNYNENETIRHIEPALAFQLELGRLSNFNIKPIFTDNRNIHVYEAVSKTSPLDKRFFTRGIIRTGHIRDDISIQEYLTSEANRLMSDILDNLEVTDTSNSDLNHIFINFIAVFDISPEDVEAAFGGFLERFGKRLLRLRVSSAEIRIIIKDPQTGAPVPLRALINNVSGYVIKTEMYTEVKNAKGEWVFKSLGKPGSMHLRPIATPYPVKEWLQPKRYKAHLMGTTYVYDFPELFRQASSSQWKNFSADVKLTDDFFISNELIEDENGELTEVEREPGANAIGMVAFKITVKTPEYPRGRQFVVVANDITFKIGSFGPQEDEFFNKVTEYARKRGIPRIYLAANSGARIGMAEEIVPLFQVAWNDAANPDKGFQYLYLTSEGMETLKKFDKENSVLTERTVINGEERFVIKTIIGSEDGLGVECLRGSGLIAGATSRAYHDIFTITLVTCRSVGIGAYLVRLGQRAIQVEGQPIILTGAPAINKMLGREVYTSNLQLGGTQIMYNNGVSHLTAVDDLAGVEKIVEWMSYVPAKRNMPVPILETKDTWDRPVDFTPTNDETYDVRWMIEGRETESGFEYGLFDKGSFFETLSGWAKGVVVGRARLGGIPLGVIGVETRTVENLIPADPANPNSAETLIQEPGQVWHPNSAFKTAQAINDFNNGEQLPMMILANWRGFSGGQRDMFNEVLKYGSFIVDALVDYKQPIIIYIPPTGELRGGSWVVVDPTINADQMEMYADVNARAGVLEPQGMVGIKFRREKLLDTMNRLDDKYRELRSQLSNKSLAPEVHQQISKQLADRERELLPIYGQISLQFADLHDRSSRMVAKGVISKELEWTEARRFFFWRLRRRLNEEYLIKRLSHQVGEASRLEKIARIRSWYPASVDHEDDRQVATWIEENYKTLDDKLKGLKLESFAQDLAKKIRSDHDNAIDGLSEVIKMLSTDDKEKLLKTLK

C. albicans ATCC 90028 = experiment: Anti-Fungal Activity Assay (broth microtiter MIC), C. albicans; type: cell-based, Candida albicans; conditions: Candida albicans, ATCC90028, 48 h, 3 replicates; MIC recorded at 48 h; read-out: MIC C. albicans ATCC 90028
Procedure, shortened: as §1

COCCO[C@@H](Cn1c(=O)n([C@@H]2CCN(C(C)C)C2=O)c(=O)c2c(C)c(-n3nccn3)sc21)c1cc(F)ccc1OC [Compound I-105, 1-((R)-2-(5-fluoro-2-methoxyphenyl)-2-(2-methoxy-ethoxy)ethyl)-3-((R)-1-isopropyl-2-oxopyrrolidin-3-yl)-5-methyl-6-(2H-1,2,3-triazol-2-yl)thieno[2,3-d]pyrimidine-2,4(1H,3H)-dione]
MIC [1]: 2.1 to 4 µg/mL (≈ 3.5 to 6.66 µM)
MIC (C. krusei ATCC 6258): 2.1 to 4 µg/mL (≈ 3.5 to 6.66 µM)
IC50 (Human ACC2): 10 to 100 nM
IC50 (Fungal ACC2): 2 to 10 nM
MIC (C. albicans ATCC 90028): 2.1 to 4 µg/mL (≈ 3.5 to 6.66 µM)

COc1ccc(F)cc1[C@H](COc1nc2sc(-n3nccn3)c(C)c2c(=O)n1[C@@H]1CC(=O)N(C)C1)OCCO [Compound I-112, 2-((R)-2-(5-fluoro-2-methoxyphenyl)-2-(2-hydroxy-ethoxy)ethoxy)-5-methyl-3-((R)-1-methyl-5-oxopyrrolidin-3-yl)-6-(2H-1,2,3-triazol-2-yl)thieno[2,3-d]pyrimidin-4(3H)-one]
MIC [1]: 2.1 to 4 µg/mL (≈ 3.76 to 7.16 µM)
MIC (C. krusei ATCC 6258): 2.1 to 4 µg/mL (≈ 3.76 to 7.16 µM)
IC50 (Human ACC2): > 1000 nM
IC50 (Fungal ACC2): 10 to 100 nM
MIC (C. albicans ATCC 90028): 2.1 to 4 µg/mL (≈ 3.76 to 7.16 µM)

COCCO[C@@H](Cn1c(=O)n([C@@]2(C)CNC(=O)C2)c(=O)c2c(C)c(-n3nccn3)sc21)c1cc(F)ccc1OC [Compound I-114, 1-((R)-2-(5-fluoro-2-methoxyphenyl)-2-(2-methoxyethoxy)ethyl)-5-methyl-3-((R)-3-methyl-5-oxopyrrolidin-3-yl)-6-(2H-1,2,3-triazol-2-yl)thieno[2,3-d]pyrimidine-2,4(1H,3H)-dione]
MIC [1]: 2.1 to 4 µg/mL (≈ 3.67 to 6.99 µM)
MIC (C. krusei ATCC 6258): 2.1 to 4 µg/mL (≈ 3.67 to 6.99 µM)
IC50 (Human ACC2): 10 to 100 nM
IC50 (Fungal ACC2): 2 to 10 nM
MIC (C. albicans ATCC 90028): 2.1 to 4 µg/mL (≈ 3.67 to 6.99 µM)

COCCO[C@@H](Cn1c(=O)n([C@]2(C)CNC(=O)C2)c(=O)c2c(C)c(-n3nccn3)sc21)c1cc(F)ccc1OC [Compound I-115, 1-((R)-2-(5-fluoro-2-methoxyphenyl)-2-(2-methoxy-ethoxy)ethyl)-5-methyl-3-((S)-3-methyl-5-oxopyrrolidin-3-yl)-6-(2H-1,2,3-triazol-2-yl)thieno[2,3-d]pyrimidine-24(1H,3H)-dione]
MIC [1]: 2.1 to 4 µg/mL (≈ 3.67 to 6.99 µM)
MIC (C. krusei ATCC 6258): 2.1 to 4 µg/mL (≈ 3.67 to 6.99 µM)
IC50 (Human ACC2): 10 to 100 nM
IC50 (Fungal ACC2): 0.7 to 2 nM
MIC (C. albicans ATCC 90028): 2.1 to 4 µg/mL (≈ 3.67 to 6.99 µM)

COc1ccc(F)cc1[C@H](Cn1c(=O)n([C@H]2CCCN(C)C2=O)c(=O)c2c(C)c(-n3nccn3)sc21)OCCC#N [Compound I-116, 3-((R)-1-(5-fluoro-2-methoxyphenyl)-2-(5-methyl-3-((S)-1-methyl-2-oxopiperidin-3-yl)-2,4-dioxo-6-(2H-1,2,3-triazol-2-yl)-3,4-dihydrothieno[2,3-d]pyrimidin-1(2H)-yl)ethoxy)propanenitrile]
MIC [1]: 2.1 to 4 µg/mL (≈ 3.61 to 6.88 µM)
MIC (C. krusei ATCC 6258): 2.1 to 4 µg/mL (≈ 3.61 to 6.88 µM)
IC50 (Human ACC2): 10 to 100 nM
IC50 (Fungal ACC2): 0.7 to 2 nM
MIC (C. albicans ATCC 90028): 2.1 to 4 µg/mL (≈ 3.61 to 6.88 µM)

COc1ccc(F)cc1[C@H](Cn1c(=O)n([C@@H]2CCCN(C)C2=O)c(=O)c2c(C)c(-n3nccn3)sc21)OCCC#N [Compound I-117, 3-((R)-1-(5-fluoro-2-methoxyphenyl)-2-(5-methyl-3-((R)-1-methyl-2-oxopiperidin-3-yl)-2,4-dioxo-6-(2H-1,2,3-triazol-2-yl)-3,4-dihydrothieno[2,3-d]pyrimidin-1(2H)-yl)ethoxy)propanenitrile]
MIC [1]: 2.1 to 4 µg/mL (≈ 3.61 to 6.88 µM)
MIC (C. krusei ATCC 6258): 2.1 to 4 µg/mL (≈ 3.61 to 6.88 µM)
IC50 (Human ACC2): 2 to 10 nM
IC50 (Fungal ACC2): 0.7 to 2 nM
MIC (C. albicans ATCC 90028): 2.1 to 4 µg/mL (≈ 3.61 to 6.88 µM)

COc1ccc(F)cc1[C@H](Cn1c(=O)n([C@@]2(C)CNC(=O)C2)c(=O)c2c(C)c(-n3nccn3)sc21)OCCO [Compound I-118, 1-((R)-2-(5-fluoro-2-methoxyphenyl)-2-(2-hydroxy-ethoxy)ethyl)-5-methyl-3-((R)-3-methyl-5-oxopyrrolidin-3-yl)-6-(2H-1,2,3-triazol-2-yl)thieno[2,3-d]pyrimidine-2,4(1H,3H)-dione]
MIC [1]: 2.1 to 4 µg/mL (≈ 3.76 to 7.16 µM)
MIC (C. krusei ATCC 6258): 2.1 to 4 µg/mL (≈ 3.76 to 7.16 µM)
IC50 (Human ACC2): 10 to 100 nM
IC50 (Fungal ACC2): 2 to 10 nM
MIC (C. albicans ATCC 90028): 2.1 to 4 µg/mL (≈ 3.76 to 7.16 µM)

COc1ccc(F)cc1[C@H](Cn1c(=O)n([C@]2(C)CNC(=O)C2)c(=O)c2c(C)c(-n3nccn3)sc21)OCCO [Compound I-119, 1-((R)-2-(5-fluoro-2-methoxyphenyl)-2-(2-hydroxyethoxy)ethyl)-5-methyl-3-((S)-3-methyl-5-oxopyrrolidin-3-yl)-6-(2H-1,2,3-triazol-2-yl)thieno[2,3-d]pyrimidine-2,4(1H,3H)-dione]
MIC [1]: 2.1 to 4 µg/mL (≈ 3.76 to 7.16 µM)
MIC (C. krusei ATCC 6258): 2.1 to 4 µg/mL (≈ 3.76 to 7.16 µM)
IC50 (Human ACC2): 10 to 100 nM
IC50 (Fungal ACC2): 2 to 10 nM
MIC (C. albicans ATCC 90028): 2.1 to 4 µg/mL (≈ 3.76 to 7.16 µM)

COCCO[C@@H](Cn1c(=O)n([C@]2(C)CC(=O)N(C)C2)c(=O)c2c(C)c(-n3nccn3)sc21)c1cc(F)ccc1OC [Compound I-120, 3-((R)-1,3-dimethyl-5-oxopyrrolidin-3-yl)-1-((R)-2-(5-fluoro-2-methoxyphenyl)-2-(2-methoxyethoxy)ethyl)-5-methyl-6-(2H-1,2,3-triazol-2-yl)thieno[2,3-d]pyrimidine-2,4(1H,3H)-dione]
MIC [1]: 2.1 to 4 µg/mL (≈ 3.58 to 6.82 µM)
MIC (C. krusei ATCC 6258): 2.1 to 4 µg/mL (≈ 3.58 to 6.82 µM)
IC50 (Human ACC2): 10 to 100 nM
IC50 (Fungal ACC2): 0.7 to 2 nM
MIC (C. albicans ATCC 90028): 2.1 to 4 µg/mL (≈ 3.58 to 6.82 µM)
